Earlier results, collected in US20110301202A1, “SPLA2 INHIBITOR CONJUGATE COMPOUNDS AND METHODS OF USE” (priority 2010, published 2011).

Tests used:
[1] = following administration
[2] = once- or twice-daily, stable CVD population, also diabetic and high baseline LDL-C subpopulations

For `CCc1c(C(=O)C(N)=O)c2c(OCC(=O)OC)cccc2n1Cc1ccccc1` [A-002, [[3-(2-Amino-1,2-dioxoethyl)-2-ethyl-1-(phenylmethyl)-1H-indol-4-yl]oxy]acetic acid methyl ester], the lipid levels (humans) is given as “decreases”, the LDL-C [2] is given as “decreases” and the inflammatory marker levels [2] is given as “decreases”. For the same compound, the “small LDL-C particle levels” value [2] was “decreases”, the “total LDL-C particle levels” value [2] was “decreases” and the total cholesterol [2] was “decreases”. The “absorption and hydrolysis of prodrug to A-001” value [1] was “rapidly absorbed and hydrolyzed to A-001”.
